Legend:
[1] = system: self-complementary duplex 12-mer d(AATTACGTAATT) (SEQ ID NO: 1); assay: DNA alkylation detected by non-denaturing DNA-gel electrophoresis with in-gel fluorescence; assay type: biochemical; conditions: oligonucleotide 100 μM; at the lowest concentration of DC-45-A2 (printed 1 mM); 3 h at 23 °C
[2] = Water solubility; conditions: attenuated by saturation with sodium chloride
[3] = system: nuclei of H460 cells; assay: Fluorescence microscopy of labeled H460 cells; assay type: cell-based; conditions: 0.4 μM, 5 h at 37 °C, co-stain TO-PRO-3
Description: Fluorescence images of nuclei of H460 cells labeled with DC-45-A2 [4.0 μM] or dideoxy-DC-45-A2 [0.4 μM] for 5 h at 37° C. is provided in FIG. 15. […] The scale bar represents 10 μm.
Experimental Details for Fluorescence Microscopy: H460 cells were grown on 22 mm glass coverslips and allowed to attach for 24 h. Subconfluent H460 cells (50-60% confluency) were treated with drugs of desired concentration and incubated at 37° C. for 5 h. The coverslips were washed three times with warm PBS. The cells were then fixed with 4% paraformaldehyde in PBS at 23° C. for 15 min. At 23° C., the cells were permeablized with 0.1% Triton-X100 in PBS for 15 min and blocked with 5% BSA for 40 min. After two washes with PBS, the cells were incubated with 0.2 µM TO-PRO-3 (Invitrogen) in PBS at 23° C. for 15 min. The coverslips were washed three times with PBS and mounted with Mowiol on microscope slides. Fluorescent images were captured on an Olympus IX71 inverted microscope equipped with a 60× water-immersion objective, a Nikon Intensilight Illuminator, and an Andor iXon EMCCD camera. Imaging data of DC-45-A2 and dideoxy DC-45-A2 were collected with a 387/11 nm excitation filter and a 510/84 nm emission filter purchased from Semrock. TO-PRO-3 dye was imaged using Cy5 channels. The images were complied and colorized using ImageJ software.

| Substance | fluorescent DC-45-A2-DNA complex, in-gel fluorescence prior to ethidium bromide staining [1] | water solubility [2] | localization in cells [3] |
| --- | --- | --- | --- |
| DC-45-A2 | clearly observed | appreciable water solubility | – |
| Dideoxy-DC-45-A2 | – | – | co-localizes with nuclear DNA |

Source: US9102697B2, “Trioxacarcins and uses thereof” (President and Fellows of Harvard College, priority 2010, dated 2015)
